Laboratory results reported in patent US12358963B2, “Regenerative polypeptides and uses thereof” (Juvena Therapeutics, Inc., priority 2019, dated 2025).

Key:
Format in all cases: cell-based
[1] = tested on: aged human myoblast cell lines; assay: Myogenic gene RNA expression in aged human myoblasts by real-time qPCR
Method: Myogenic gene RNA expression (fold change to FM) in response to vehicle (FM) in mouse myoblast cell lines monitored by real-time qPCR. Myoblast were cultured 48h in fusion media. Mean±SD. n=3. (Y,Z) Differential induction of myogenic gene expression by FGF17 in human myoblast myoblasts. Quantitation table of myogenic gene RNA expression (fold change to FM-fusion media (DMEM+2% horse serum)) in response to FM or rh-FGF17 in aged human myoblast cell lines by real-time qPCR. Myoblast were cultured (B) 48 hours or (C) 72 hours in FM. Mean∓SD. n=3.
RNA was isolated from each well (RNeasy Mini Kit, Qiagen) and cDNA was obtained by reverse-transcription (High Capacity Reverse Transcription Kit, Thermo Fisher Scientific). Real-time quantitative PCR was performed using QuantStudio3 (Thermo Fisher).
Aged human myoblasts were cultured in well plates. […] Cells that had been cultured with IGF2 had increases in levels of MYOG at 48 hours and levels of MYOD at 72 hours.

DM1 human myoblast [2] = assay: DM1 human myoblast fusion (% eMyHC area); conditions: 96h; vehicle 0.45
Method: (§1) Bar graph of % EdU+ human myoblast (person) and % area MyHC in response to IGF2. Myoblast were cultured 72h for proliferation and 96h for fusion in the presence of indicated factor. Mean∓S.D. Mean∓SD. Significant p-values (EdU: Vehicle˜IGF2: 6.8E-3, % eMyHC Area: Vehicle˜IGF2: 1.9E-4) (*p<0.05 by Students Two-Tailed T-test, n=3-6).
(§2) IGF2 was tested individually for its ability to promote proliferation and/or fusion of human muscle progenitor cells from an individual with myotonic dystrophy type 1 (hMD)—a muscular dystrophy caused by mutations in the DMPK1 gene. The effect of IGF2 on myogenic activity was assayed in biological triplicate across a range of concentrations centered around expected physiological levels by adding each factor to hMD myoblasts for 72 hours with daily media changes (DMEM +2% horse serum) and a second pulse of factors at the first media change. After 72 or 96 hours, cells were pulsed for 2-5 hours with EdU (30 uM), ethanol fixed, stained with Hoescht 3342, immunostained for proliferation—as measured by the percent of cells staining positive for EdU (% EdU)—, and immunostained for differentiation—as measured by the increase in cellular area staining positive for embryonic myosin heavy chain (% eMyHC) relative to the negative controls, which received media and vehicle only. […]

DM1 human myoblast [3] = assay: Gene expression fold change in DM1 human myoblast; conditions: IGF2 200 ng/mL
human myoblast cells = assay: Human myoblast differentiation, % area eMyHC (IGF2, sodium butyrate); conditions: 96h, vehicle 6.813
Method: Fresh media was added every 24 hours. […] The total area of eMyHc positive cells was analyzed, and treated cells were compared to cells treated with the vehicle alone. […] Myoblast were cultured 96h in the presence of BMP7 at indicated dose. Fresh media and BMP7 was added every 24h. Mean∓S.D. (*p<0.05 by One-Way Anova Tukey Honest Significant Difference, n=2-12) […] Fresh media was added every 24 hours. […] FIG. 3A: Bar graph of % Area eMyHC+ age human myoblast (person) in response to indicated treatment compared to Vehicle (vehicle). Myoblast were cultured 96h in the presence of factors at indicated dose. Fresh media and factors were added every 24h. Mean∓S.D. Significant p-values (Vehicle IGF2: 0.03 ug/mL: 1.42E-08, Vehicle NaBut: 1 nM IGF2: 0.03 ug/mL: 1.79E-11, Vehicle NaBut: 10 nM IGF2: 0.03 ug/mL: 1.80E-11, Vehicle NaBut: 100 nM IGF2: 0.03 ug/mL: 1.79E-11). […] Myoblast were cultured 96h in the presence of BMP7 at indicated dose. Mean±S.D. Significant p-values (IGF2 NaBut: 1 nM IGF2: 0.03 ug/mL: 1.88E-3, Vehicle NaBut: 10 nM IGF2: 0.03 ug/mL: 4.80E-3, Vehicle NaBut: 100 nM IGF2: 0.03 ug/mL: 1.87E-3) (*p<0.05 by One-Way ANOVA Tukey Honest Significant Difference, n=2-12)

DM1 human myoblast [4] = assay: DM1 human myoblast proliferation (EdU); conditions: 72h; vehicle 1.0
Method: as §1, §2

[5] = 48h, BMP7 50 ng/mL, Butyrate 100 nM, FM 1.000

Substance: IGF2: IGF2 polypeptide, IGF1R agonist
- MYOD1 RNA expression (fold change to FM) ([1]; 48 hr, FM 1.001): 0.519
- MYOG RNA expression (fold change to FM) ([1]; 48 hr, FM 1.013): 5.756
- MYF5 RNA expression (fold change to FM) ([1]; 48 hr, FM 1.04): 0.409
- MYF5 RNA expression (fold change to FM) ([1]; 72 hr, FM 1.023): 0.708
- MYOD1 RNA expression (fold change to FM) ([1]; 72 hr, FM 1.055): 5.723
- MYOG RNA expression (fold change to FM) ([1]; 72 hr, FM 1.092): 0.018
- % eMyHC are (DM1 human myoblast [2]): 5.49%
- ATP1B1 expression fold change compared to FM (vehicle) (DM1 human myoblast [3]; 48h): 3.018
- MYF5 expression fold change compared to FM (DM1 human myoblast [3]; [5]): 0.730
- MYOD1 expression fold change compared to FM (DM1 human myoblast [3]; [5]): 1.252
- MYOG expression fold change compared to FM (DM1 human myoblast [3]; [5]): 2.972
- CKM expression fold change compared to vehicle (DM1 human myoblast [3]; 96h): 5.165
- MYH3 expression fold change compared to vehicle (DM1 human myoblast [3]; 96h): 14.833
- % eMyHC (human myoblast cells; IGF2 0.015 ug/mL): 10.843%
- % eMyHC (human myoblast cells; IGF2 0.03 ug/mL, aged human myoblast): 16.620%
- EdU FC (DM1 human myoblast [4]): 2.18
